{
  "source": "patent US8450304B2",
  "about": "“4-azetidinyl-1-heteroaryl-cyclohexanol antagonists of CCR2” (Janssen Pharmaceutica N.V., priority 2008, dated 2013)",
  "key": {"[1]": {"system": "total BAL leukocyte count (and eosinophil count)", "assay": "Mouse model of allergic asthma", "assay_type": "in vivo", "conditions": "10 mpk, p.o. bid; OVA-sensitized mice; BAL on day 21", "from_the_text": "(§1) Mouse CCR2 knock-out/human CCR2 knock-in mice were generated using targeted 129Sv/Evbrd embryonic stem cell clones injected into C57BL/6 mice. Expression of the hCCR2 transcript was confirmed by quantitative reverse transcription-polymerase chain reaction performed on spleen and blood total RNA from homozygous hCCR2 knock-in mice. Backcrossing into C57BL/6 genetic background continued to the eighth generation. Transgenic mice were housed in a specific-pathogen-free, temperature-controlled facility that maintained a 12-hour light/12-hour dark cycle. Mice had free access to water and food. […]\nAnimals were sensitized by intraperitoneal injection of 10 μg chicken egg albumin (OVA) absorbed to 1 mg Imject® in 100 μL phosphate-buffered saline (PBS) on days 0 and 5. […] On day 21, 2 hours post the last dose of CCR2 compounds, bronchial reactivity to aerosolized methacholine was measured using a Buxco whole body plethysmograpgh. […] Bronchoalveolar lavage fluid was collected (1 mL) and total cells counted. The numbers of eosinophils, lymphocytes, monocytes and neutrophils were determined using cytospin analysis after Giemsa staining (Hema Tek 2000). Percent inhibition of total BAL leukocyte count (and eosinophil count) was calculated by comparing the compound-treated mice with vehicle-treated mice. […]"}, "[2]": {"system": "MCP-1-induced monocyte recruitment to airway", "assay": "MCP-1-induced monocyte recruitment to airway of mice", "assay_type": "in vivo", "conditions": "10 mpk, p.o. bid; 4 μg MCP-1 intranasally; after 48 h", "from_the_text": "(§2) Mouse CCR2 knock-out/human CCR2 knock-in mice were generated using targeted 129Sv/Evbrd embryonic stem cell clones injected into C57BL/6 mice. Expression of the hCCR2 transcript was confirmed by quantitative reverse transcription-polymerase chain reaction performed on spleen and blood total RNA from homozygous hCCR2 knock-in mice. Backcrossing into C57BL/6 genetic background continued to the eighth generation. Transgenic mice were housed in a specific-pathogen-free, temperature-controlled facility that maintained a 12-hour light/12-hour dark cycle. Mice had free access to water and food. Experimental procedures were carried out in accordance with institutional standards for animal care and were approved by the institute's animal care and use committee.\nAnimals were orally treated with vehicle or CCR2 antagonists at 3, 10, and 30 mg/kg po bid). One hour later, the animals were intranasally dosed with 4 μg of MCP-1 in sterile saline. The animals were orally treated twice daily with vehicle or CCR2 antagonists. After 48 h, mice were euthanized by intraperitoneal injection of anesthesia solution (Sleepaway-Sodium pentobarbital). […] Percent inhibition was calculated by comparing the change in number of total leukocyte counts (including monocytes/macrophages and lymphocytes) of compound-treated mice to the vehicle-treated mice. […]"}, "[3]": {"assay": "High-fat diet induced obesity and insulin resistance in mice", "assay_type": "in vivo", "conditions": "10 mpk, p.o. bid; high-fat diet obese mice; 40 days treatment", "from_the_text": "as §1\nObesity was induced by a high-fat diet that derived approximately 60% calories from lipids (D-12492; Research Diets Inc.) in animals for 10-24 weeks at age of 7 weeks. […] Body weight and food intake and fasting blood glucose levels were monitored. Body mass was determined by a NMR analyzer (Burker MiniSpec). […] After an intraperitoneal bolus injection of recombinant human insulin (1.5 U/kg), blood glucose concentrations were measured using a Glucometer before and 15, 30, 45, 60, 90 and 120 minutes after injection. […] Blood glucose concentrations were measured before and after 15, 30, 60, 90, 120 minutes after an oral dose of glucose dissolved in water (1 g/kg). Energy expenditure analysis was monitored by a complete laboratory animal monitor system. […]"}, "[4]": {"system": "thioglycollate-induced peritonitis", "assay": "Thioglycollate-induced peritonitis in mice", "assay_type": "in vivo", "conditions": "10 mpk, p.o. bid; 72-hour time point; leukocytes in peritoneal lavage vs vehicle", "from_the_text": "as §2\nAnimals were orally dosed with vehicle or CCR2 antagonists at 3, 10, 30 and 100 mg/kg bid). One hour later, the animals were intraperiponeally injected with sterile thioglycollate (25 mL/kg, ip, Sigma) for induction of peritonitis. Animals were orally treated twice daily with vehicle or CCR2 antagonists. At 72-hour time point, perinoteal cavities were lavaged with 10 mL of sterile saline. […] Percent inhibition of the thioglycollate-induced peritonitis was calculated by comparing the change in number of leukocytes of CCR2 antagonist treated mice to the vehicle-treated mice."}, "cell migration": {"system": "cell migration", "assay": "Murine in vivo cell migration assay", "parameters": "species or system mice", "conditions": "10 mpk, P.O. bid; human MCP-1 on small bowel serosa; 24 hours", "from_the_text": "as §2\nAnimals were orally dosed with vehicle or CCR2 antagonists at 3, 10 and 30 mg/kg bid. Animals underwent anesthesia and laparotomy. A distal loop of small bowel (5 cm in length) was gently eventrated onto moist sterile gauze. Synthetic human MCP-1 ([…] sterile PBS) or PBS alone was administered drop-wise onto the serosa of the eventrated loop. A suture knot was placed into the mesentery to mark the terminus of the treated area. Twenty-four hours later, the animal was sacrificed and the segment of bowel plus the adjacent region was removed. The tissue was opened along the mesenteric border, pinned flat and the mucosa removed. […]"}},
  "data": [
    {"smiles": "O=C(CNC(=O)c1cccc(C(F)(F)F)c1)NC1CN(C2CCC(O)(c3cncs3)CC2)C1", "note": "(centres unmarked) [Example 40, N-{[1-(4-Hydroxy-4-thiazol-5-yl-cyclohexyl)-azetidin-3-ylcarbamoyl]-methyl}-3-trifluoromethyl-benzamide]", "values": [
      {"measurement": "reduction of cell count (efficacious if the inhibition reaches 30%)", "setting": "[1]", "result": "efficacious"},
      {"measurement": "percent inhibition of total leukocyte counts in BAL", "setting": "[2]", "result": "> 50", "unit": "%"},
      {"measurement": "reduce body weight (percent of weight loss vs vehicle-treated mice)", "setting": "[3]", "result": "> 8", "unit": "%"},
      {"measurement": "inhibition of thioglycollate-induced peritonitis", "setting": "[4]", "result": "> 50", "unit": "%"},
      {"measurement": "blocking cell migration (efficacious if the inhibition of cell migration reaches 30% compared with vehicle-treated animals)", "setting": "cell migration", "result": "efficacious"}
    ]}
  ]
}
